Measurements: PubChem BioAssay AID179 (DTP/NCI, 2004)
Calls of active or inactive are those of the source.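 How the source made its calls: active means compounds giving half or more protection of infected cells from virus-caused growth loss, again on retest; inactive means the rest.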

Test system: CEM cells HIV-1 protection, formazan growth assay
Experiment: NCI AIDS Antiviral Assay
Details: for IC50: measured here: growth of uninfected CEM cells
Procedure, shortened: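 Human CEM cells, uninfected and HIV-1-infected, received five drug concentrations, and growth was read by soluble formazan assay. Compounds giving at least 50% protection were retested; reproducible 100% protection defined confirmed active.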

Row | SMILES | EC50 [µM] | IC50 [µM] | outcome
1 | Nc1nc(Cl)c(N=Nc2ccc(Cl)cc2)c(NCC2(CO)CC2)n1 | > 200 | > 200 | –
2 | O=S(=O)([O-])c1ccc(C=Nc2ccccc2)c([O-])c1.O=S(=O)([O-])c1ccc(C=Nc2ccccc2)c([O-])c1.[Co+2] | > 407 | 95.5 | –
3 | Nc1ccc(N)c(N2C(=O)c3ccccc3C2=O)c1 | > 200 | > 200 | –
4 | CN(C)CCNC(=O)c1nn(-c2ccccc2)c2c1CSc1ccccc1-2 | > 200 | 110 | –
5 | COCOc1cc(C)c(C(=O)Oc2cc(C)c(C(=O)OC)c(OCOC)c2C)c(OCOC)c1C=O | > 200 | 26.9 | –
6 | CCOC(=O)C(=O)Nc1nc2c(s1)C(=O)c1ccccc1C2=O | – | – | inactive
7 | O=C1OCCN(CCO)C12CCCC2 | > 759 | > 759 | –
8 | COC(=O)C(=O)Nc1cc2c3c(c1)Oc1cccc4c1C3(C)c1c(cccc1O2)O4 | 28.2 | 126 | –
9 | O=C(CC1(O)C(=O)Nc2ccc(Br)cc21)c1cccc([N+](=O)[O-])c1 (stereo not drawn) | > 174 | 93.3 | –
10 | Cc1ccccc1C(=O)N1CCN(C(=O)c2ccccc2C)CC1 | > 145 | > 145 | –
11 | CN(C)c1ccc(/C=C(\NC(=O)c2ccccc2)C2=NC(CC(=O)O)C(=O)O2)cc1 (stereo not drawn) | > 50.1 | > 50.1 | –
12 | COC(=O)c1cc(C#N)[nH]c1-c1cccs1 | > 200 | 40.7 | –
13 | CC(C)/C=N\n1c(N)c(C#N)c(C#N)c1C(C)C | > 200 | 63.1 | –
14 | CSc1c2c([nH]c(=O)c1C#N)-c1ccccc1CC2 | > 200 | 166 | –
15 | CCCC/C(=N\OC(=O)N(C)C)c1ccccc1 | > 200 | > 100 | –
16 | C/C(CC(O)(C(F)(F)F)C(F)(F)F)=N\N | > 200 | > 200 | –
17 | O/N=C/c1ccc(O)c(O)c1 | > 1620 | 87.1 | –
18 | C1=C(c2ccccc2)Nc2ccccc2N=C1c1ccccc1 | > 200 | > 200 | –
19 | C=CCN(N=O)C(=O)N(CCC)CCCCC(NC(C)=O)C(=O)NCc1ccccc1 (stereo not drawn) | – | – | inactive
20 | Cc1cc(NS(=O)(=O)c2ccc(Nc3c4ccccc4nc4c(C(=O)O)cccc34)cc2)no1 | > 200 | 178 | –
21 | CC(=O)OCc1nc2ncnc(N)c2[nH]1 | > 631 | > 631 | –
22 | CCCC/C=C(/CCCNCCCC)[Si](C)(C)C | > 479 | 240 | –
23 | CN(C)C1COC2Cc3ccccc3C1O2 (stereo not drawn) | > 200 | > 200 | –

Row | SMILES | EC50 [µM] | IC50 [µM] | outcome
24 | COc1ccc2nc3cc([N+](=O)[O-])ccc3c(NCCCCCN(C)C)c2c1 | > 2 | 0.138 | –
25 | CN(C)c1nc(=NCc2ccccc2)ss1 | > 200 | 10.2 | –
26 | Cn1c(=O)nc2n(-c3cccc(F)c3)c3ccccc3nc-2c1=O | – | – | inactive
27 | c1ccc2c(c1)CCc1c-2n(CCN2CCOCC2)c2ccccc12 | > 200 | > 200 | –
28 | N#Cc1c2c([nH]c(=O)c1C#N)CCCC2 | > 200 | > 200 | –
29 | Clc1c2ccccc2[se][n+]1-c1ccccc1 | > 21.9 | 11.2 | –
30 | COc1cc(N=Nc2ccccc2)cc(/C=N/NC(=O)c2cccnc2)c1O | > 661 | 60.3 | –
31 | Cc1c2cccc-2c(OCCO)cc2c1[nH]c1ccccc12 | > 200 | 2.88 | –
32 | CC(=O)N/N=C(\N)c1nc2c(n3nc(C)nc13)CCCC2 | > 200 | 91.2 | –
33 | O=C(NCCCNCCN1C(=O)c2cccc3cc([N+](=O)[O-])cc(c23)C1=O)c1cc(-c2ccccc2)nc2ccccc12 | > 200 | 1.05 | –
34 | Cc1ccc2ccccc2c1CC1S(=O)(=O)OCCOS1(=O)=O | > 200 | 115 | –
35 | CCOC(=O)C(Oc1ccc(OC)c2c1C(=O)CCC2)c1ccccc1 (stereo not drawn) | – | – | inactive
36 | Cc1ccc(S(=O)(=O)OC2CSS(=O)CC2OS(=O)(=O)c2ccc(C)cc2)cc1 (stereo not drawn) | > 200 | 9.33 | –
37 | COC(=O)c1ccc(N2CC=C(C)C(c3ccc(OC)cc3)O2)cc1 (stereo not drawn) | > 15.5 | > 15.5 | –
38 | CCCCCCSSCCCCCC | > 200 | > 200 | –
39 | N=c1c2c(ncn1N)Oc1c(c(-c3ccccc3)nn1-c1ccccc1)C2c1ccc(Cl)cc1 (stereo not drawn) | > 200 | 2.09 | –
40 | N#C/C(=C\NC(=S)C(N)=S)C(=O)c1ccc2ccccc2c1 | > 200 | 58.9 | –
41 | CN(C)P(=O)(c1ccccc1)c1ccccc1 | > 200 | > 200 | –
42 | Cn1ncc(=O)[nH]c1=S | > 200 | > 200 | –
43 | NS(=O)(=O)c1ccc(NC(=O)Nc2cc(C(F)(F)F)ccc2Cl)cc1 | > 200 | 10.2 | –
44 | CN(O)C(=O)Cc1ccccc1 | > 15.1 | > 15.1 | –
45 | CCc1cccc(C)c1NC(=O)C(=O)Cc1nc2ccccc2s1 | – | – | inactive
46 | CC(=O)C(=Cc1ccc(-c2ccccc2)cc1)C(C)=O | > 19.5 | > 19.5 | –

Row | SMILES | EC50 [µM] | IC50 [µM] | outcome
47 | CCOC(=O)c1sc2nc1CSc1sc(=S)sc1SCc1nc(sc1C(=O)OCC)-c1nc(c(C(=O)OCC)s1)CSc1sc(=S)sc1SCc1nc-2sc1C(=O)OCC | > 200 | > 200 | –
48 | CSc1nc(N)c2c(n1)N(C)C=NS2(=O)=O | > 28.2 | > 28.2 | –
49 | O=[N+]([O-])c1ccc(C2=Nc3ccccc3SC(c3ccccc3)C2)cc1 (stereo not drawn) | > 27.5 | > 27.5 | –
50 | O=c1oc2ccccc2c2c1Sc1ccccc1N2 | > 51.3 | > 51.3 | –
51 | COc1cc2c(c3c1c(=O)c1ccccc1n3C)C=CC1(CCCC1)O2 | > 200 | 11 | –
52 | COC1OC2=CCC3C(=O)NC(=O)C3C2[C@H](OCc2ccccc2)C1OCc1ccccc1 (stereo partly drawn) | – | – | inactive
53 | C=c1[nH]c(=O)c(=C)[nH]c1=O | > 72.4 | 26.3 | –
54 | Cn1c(=O)nc2n(-c3ccc(F)c(F)c3)c3ccccc3nc-2c1=O | – | – | inactive
55 | COc1ccc(/C(C)=N\N)cc1 | > 200 | > 200 | –
56 | COc1ccc(COC(=O)NNC(=O)C2CSC(c3ccccc3)N2C(C)=O)cc1 (stereo not drawn) | > 200 | 174 | –
57 | CCOC(=O)C(N)CSC(=O)NC (stereo not drawn) | > 1020 | 87.1 | –
58 | CNP(=O)(NC)NC | > 200 | > 200 | –
59 | O=C1c2ccccc2C(=O)c2c1nnn2-c1ccccc1 | > 200 | 3.55 | –
60 | CC1(C)CC(=O)C2=C(C1)Nc1ccccc1NC2c1ccccc1 (stereo not drawn) | > 200 | > 200 | –
61 | O=[N+]([O-])/C=C1\COCc2cc3c(cc21)OCO3 | > 200 | 28.8 | –
62 | CC1CC[C@]2(C(=O)O)CCC3(C)C(=CCC4[C@@]5(C)CC[C@H](OS(=O)(=O)c6ccccc6)C(C)(C)C5CC[C@]43C)[C@@H]2[C@H]1C (stereo partly drawn) | – | – | inactive
63 | Cc1ccc(Nc2nc(C)c(C(=O)C/C(=N/NC(N)=S)C(=O)Nc3cc(Cl)cc(Cl)c3)s2)cc1 | > 200 | 178 | –
64 | CC(=O)OC1C=CN(C(C)=O)C(SC(C)(C)C)C1(C)O (stereo not drawn) | > 200 | > 200 | –
65 | CC1=C(C#N)C2(C(=O)N(C)c3ccccc32)C(C#N)=C(C)N1c1ccccc1 | > 14.1 | > 14.1 | –
66 | N#C/C(=C\c1cc(O)c(O)c(I)c1)C(=O)NCCCc1ccccc1 | > 200 | 9.55 | –
67 | Cn1c(-c2ccccc2)cc2c3ccsc3c3ccsc3c21 | > 200 | 45.7 | –
68 | O=C(Cc1cc[n+]([O-])cc1)C(=O)Nc1cc(Cl)c(Cl)cc1Cl | > 692 | 631 | –
69 | Cc1ccc(S(=O)c2sccc2C=O)cc1 (stereo not drawn) | > 200 | 9.77 | –

Row | SMILES | EC50 [µM] | IC50 [µM] | outcome
70 | CCOC(=O)C1(O)N=C(c2ccccc2)c2ccccc2-n2cccc21 (stereo not drawn) | > 200 | > 200 | –
71 | CC12CCCC(C(=O)O)(C1)[C@H](C(C)(C)C(=O)O)CC2 (stereo partly drawn) | > 200 | > 200 | –
72 | COC(=O)[C@@H]1O[C@]12C(CO[Si](C)(C)C(C)(C)C)OC(n1ccc(=O)[nH]c1=O)C2O[Si](C)(C)C(C)(C)C (stereo partly drawn) | > 200 | 9.77 | –
73 | Cc1cc2c(cc1C(=O)CCC(=O)O)CC1(C2)Cc2cc(C)c(C(=O)CCC(=O)O)cc2C1 | > 200 | > 200 | –
74 | COc1ccc(CSC2=C(C#N)C(=O)NC3(CCCCC3)S2)cc1 | > 200 | 110 | –
75 | CC(NC(=O)C(C)C(=O)Nc1ccc(C(F)(F)F)cc1)C(N)=O (stereo not drawn) | > 200 | > 200 | –
76 | C(=N\Nc1nnc2c(n1)[nH]c1ccccc12)/c1ccccc1 | > 200 | > 200 | –
77 | CC1(O)C(=O)OC2CC([C@]3(O)CCC4[C@@H]5C[C@H]6O[C@]67[C@@H](O)C=CC(=O)[C@]7(C)C5CC[C@@]43C)C1(C)C2 (stereo partly drawn) | > 200 | 11.7 | –
78 | S=c1[nH]c2ccccc2c(=S)n1CN1CCCCC1 | > 200 | 110 | –
79 | Cc1cccc(/C=N/N=C(\N)NO)n1 | > 692 | 141 | –
80 | COc1cc2[nH]c3c(c2cc1OC)CCN[C@]31CC[C@]2(CC3c4c(cc(OC)c(O)c42)CCN3C)C[C@H]1OC (stereo partly drawn) | – | – | inactive
81 | NC(=O)c1nc(C2OC(CO)C(O)C2O)cs1 (stereo not drawn) | > 200 | > 200 | –
82 | CCOC(=O)Nc1n[nH]nc1Cl | > 200 | > 200 | –
83 | CCC1=C(c2cccc(OC(C)=O)c2)C(C)c2ccc(OC(C)=O)cc21 (stereo not drawn) | > 200 | 7.41 | –
84 | O=C(Nc1nc(C23CC4CC(CC(C4)C2)C3)cs1)c1cc2c(ccc3ccccc32)oc1=O | > 200 | > 200 | –
85 | Cc1nc2ccccc2n(CC2CCCN3CCCC[C@H]23)c1=O (stereo partly drawn) | > 200 | > 200 | –
86 | CCN(CC)CCC12CC(C)OC1=Nc1ccccc1NC2=O (stereo not drawn) | > 200 | > 200 | –
87 | C/C(=N\NC(=O)c1ccncc1)c1sc(-n2nc(-c3ccccc3)cc2-c2ccccc2)nc1C | > 11 | > 11 | –
88 | O=C(c1ccccc1)N1OC2C=CC1CC2 (stereo not drawn) | > 1150 | > 1150 | –
89 | Cc1ncc([N+](=O)[O-])n1CCNS(=O)(=O)CCCn1ncnc1[N+](=O)[O-] | > 200 | > 200 | –
90 | C=C[C@@H](C)[C@@H](O)c1c(O)c2c(c3c(CCC)cc(=O)oc13)OC(C)(C)C=C2 | > 200 | 10.7 | –
91 | S=C(S)N1CCN(c2ccc(Cl)c(Cl)c2)CC1 | > 200 | 26.9 | –
